Assay results from patent US12583835B2, “Crystal form of nitroxoline prodrug, pharmaceutical composition containing same, and preparation method therefor and application thereof” (Jiangsu Yahong Meditech Co., Ltd., priority 2020, dated 2026).

Legend:
[1] = Stability test of crystal form A; type: physicochemical
Method: The crystal forms obtained in Examples 2-10 were packaged in double-layer PE bags+aluminum foil bags+cardboard barrels, sealed and stored at a temperature of 40° C. and a relative humidity of 75%; a temperature of 25° C. and a relative humidity of 60%; at 5±3° C. for 6 months. The inspection items (appearance, moisture, related substance 1, related substance 2, content) were tested, and the specific test methods were as follows.
• Moisture Meter • Electronic balance 1.2 Reagents • Karl Fischer titrant: analytical grad • Anhydrous methanol: analytical grade 1.3 Detection Method • About 50 mL of methanol was pumped into the titration beaker for pre-titration; • About 1.0 g of the test sample was accurately weighed and put into the titration beaker, stirred to dissolve, and the moisture of the test sample was titrated; • The weight of the test sample added, the concentration of the Karl Fischer titrant and the volume of the Karl Fischer titrant consumed during determination were recorded; the moisture of the second test sample was determined using the same method. 1.4 Calculation Formula
[formula] • V—Volume of Karl Fischer titrant consumed for the test sample, mL; • F—Equivalent mass of water per 1 mL of Karl Fischer titrant, mg/mL; • W—Weighed sample amount of the test sample, g. 2 Related Substance 1 2.1 Chromatographic Conditions: High Performance Liquid Chromatography (HPLC) • Column: Waters XBridge C18 4.6×150 mm, 5 μm • Detector: UV or equivalent detector • Wavelength: 210 nm • Column temperature: 35° C. • Flow rate: 1.0 mL/min • Injection volume: 10 μL • Needle Wash: Acetonitrile • Mobile phase gradient: […]
About 25 mg of the test sample was accurately weighed and put into a 50 mL volumetric flask. The diluent was added to dissolve the substance and dilute the solution to the mark, and the solution was shaken well.
[formula] • AU—the peak area of impurities in the test sample solution; • AT—Total peak area of the test sample solution. • 2) Total impurity (%)=Σ single impurity
• 3 Related Substance 2 (D-isobutyrylproline) • 3.1 Chromatographic Conditions: High Performance Liquid Chromatography (HPLC) • Column: Synergi Hydro RP 4.6×250 mm, 4 μm • Detector: UV or equivalent detector • Wave length: 210 nm • Column temperature: 35° C. • Flow rate: 1.0 mL/min • Injection volume: 5 μL • Needle Wash: Acetonitrile • Mobile phase gradient: […]
About 20 mg of the test sample was accurately weighed and put into a 10 mL volumetric flask. The diluent was added to dissolve the test sample and dilute the solution to the mark, and the solution was shaken well. Two solutions were prepared in parallel and labeled as S1/S2 respectively. • 3.4 Calculation: Only the Peak of Related Substance 2 was Integrated
[formula] [formula] • ARS2—Average peak area of reference solution 2; • ARS1—Average peak area of 5 injections of reference solution 1; • As—Peak area of related substance 2 in the test sample solution; • MRS1—Weighed sample amount of related substance 2 in reference solution 1, mg; • Ms—Weighed sample amount of the test sample in the test sample solution, mg; • MRS2—Weighed sample amount of related substance 2 in reference solution 2, mg; […]

[2] = Dynamic vapour sorption (DVS); type: physicochemical
Method: The DVS curves were acquired on DVS Intrinsic of SMS (Surface Measurement Systems). The relative humidity at 25° C. was corrected for the deliquescence points of LiCl, Mg(NO3)2 and KCl. • Test temperature: 25° C. • Sample amount: 10-20 mg • Shielding gas and flow: nitrogen, 200 mL/min • dm/dt: 0.002%/min; • Minimum dm/dt equilibration time: 10 min • Maximum equilibration time: 180 min • RH range: 0% RH-95% RH-0% RH • RH gradient: 10% 6. Polarizing Light Microscope (PLM)
The X-ray powder diffraction (XRPD) pattern of the solid is shown in FIG. 1, and the XRPD diffraction peak data thereof is shown in Table 1 below. […] (onset temperature). […] The PLM results are shown in FIG. 5, which indicate that the solid is irregular crystal particles. This crystal form is defined as crystal form A.

CC(C)C(=O)N1CCC[C@H]1C(=O)OCOc1ccc([N+](=O)[O-])c2cccnc12 [crystal form A, ((5-nitroquinolin-8-yl)oxy)methyl-isobutyryl-L-prolinate]
Appearance ([1]; 5 ± 3° C., Time 0): Yellow solid
Content ([1]; 5 ± 3° C., Time 0): 101.1%
Moisture ([1]; 5 ± 3° C., Time 0): 0.09%
Related substance 1 5-Nitro-8-hydroxyquinoline ([1]; 5 ± 3° C., Time 0): 0.04%
Related substance 1 Impurity 1 ([1]; 5 ± 3° C., Time 0): 0.27%
Related substance 1 Maximum unknown single impurity ([1]; 5 ± 3° C., Time 0): RRT 1.126: 0.07%
Related substance 1 Total impurities ([1]; 5 ± 3° C., Time 0): 0.53%
Related substance 2 ([1]; 5 ± 3° C., Time 0): 0.06%
Appearance ([1]; 5 ± 3° C., Time 6 M): Yellow solid
Content ([1]; 5 ± 3° C., Time 6 M): 99.6%
Moisture ([1]; 5 ± 3° C., Time 6 M): 0.1%
Related substance 1 Impurity 1 ([1]; 5 ± 3° C., Time 6 M): 0.3%
Related substance 1 Impurity 2 ([1]; 5 ± 3° C., Time 6 M): <0.01%
Related substance 1 Maximum unknown single impurity ([1]; 5 ± 3° C., Time 6 M): RRT 1.121: 0.07%
Related substance 1 Total impurities ([1]; 5 ± 3° C., Time 6 M): 0.5%
Related substance 2 ([1]; 5 ± 3° C., Time 6 M): 0.03%
Appearance ([1]; 25° C., 60% RH, Time 0): Yellow solid
Content ([1]; 25° C., 60% RH, Time 0): 101.1%
Moisture ([1]; 25° C., 60% RH, Time 0): 0.09%
Related substance 1 Impurity 1 ([1]; 25° C., 60% RH, Time 0): 0.27%
Related substance 1 Maximum unknown single impurity ([1]; 25° C., 60% RH, Time 0): RRT 1.126: 0.07%
Related substance 1 Total impurities ([1]; 25° C., 60% RH, Time 0): 0.53%
Related substance 2 ([1]; 25° C., 60% RH, Time 0): 0.06%
Appearance ([1]; 25° C., 60% RH, Time 3 M): Yellow solid
Content ([1]; 25° C., 60% RH, Time 3 M): 99.3%
Moisture ([1]; 25° C., 60% RH, Time 3 M): 0.07%
Related substance 1 Impurity 1 ([1]; 25° C., 60% RH, Time 3 M): 0.32%
Related substance 1 Impurity 2 ([1]; 25° C., 60% RH, Time 3 M): <0.01%
Related substance 1 Maximum unknown single impurity ([1]; 25° C., 60% RH, Time 3 M): RRT 1.123: 0.06%
Related substance 1 Total impurities ([1]; 25° C., 60% RH, Time 3 M): 0.51%
Related substance 2 ([1]; 25° C., 60% RH, Time 3 M): 0.04%
Appearance ([1]; 25° C., 60% RH, Time 6 M): Yellow solid
Content ([1]; 25° C., 60% RH, Time 6 M): 99.8%
Moisture ([1]; 25° C., 60% RH, Time 6 M): <0.1%
Related substance 1 Impurity 1 ([1]; 25° C., 60% RH, Time 6 M): 0.3%
Related substance 1 Impurity 2 ([1]; 25° C., 60% RH, Time 6 M): <0.01%
Related substance 1 Maximum unknown single impurity ([1]; 25° C., 60% RH, Time 6 M): RRT 1.121: 0.06%
Related substance 1 Total impurities ([1]; 25° C., 60% RH, Time 6 M): 0.5%
Related substance 2 ([1]; 25° C., 60% RH, Time 6 M): 0.04%
Appearance ([1]; 40° C., 75% RH, Time 0): Yellow solid
Content ([1]; 40° C., 75% RH, Time 0): 101.1%
Moisture ([1]; 40° C., 75% RH, Time 0): 0.09%
Related substance 1 5-Nitro-8-hydroxyquinoline ([1]; 40° C., 75% RH, Time 0): 0.04%
Related substance 1 Impurity 1 ([1]; 40° C., 75% RH, Time 0): 0.27%
Related substance 1 Maximum unknown single impurity ([1]; 40° C., 75% RH, Time 0): RRT 1.126: 0.07%
Related substance 1 Total impurities ([1]; 40° C., 75% RH, Time 0): 0.53%
Related substance 2 ([1]; 40° C., 75% RH, Time 0): 0.06%
Appearance ([1]; 40° C., 75% RH, Time 1 M): Yellow solid
Content ([1]; 40° C., 75% RH, Time 1 M): 101.1%
Moisture ([1]; 40° C., 75% RH, Time 1 M): 0.06%
Related substance 1 5-Nitro-8-hydroxyquinoline ([1]; 40° C., 75% RH, Time 1 M): 0.02%
Related substance 1 Impurity 1 ([1]; 40° C., 75% RH, Time 1 M): 0.27%
Related substance 1 Maximum unknown single impurity ([1]; 40° C., 75% RH, Time 1 M): RRT 1.125: 0.06%
Related substance 1 Total impurities ([1]; 40° C., 75% RH, Time 1 M): 0.52%
Related substance 2 ([1]; 40° C., 75% RH, Time 1 M): 0.05%
Appearance ([1]; 40° C., 75% RH, Time 2 M): Yellow solid
Content ([1]; 40° C., 75% RH, Time 2 M): 98.8%
Moisture ([1]; 40° C., 75% RH, Time 2 M): 0.09%
Related substance 1 Impurity 1 ([1]; 40° C., 75% RH, Time 2 M): 0.27%
Related substance 1 Impurity 2 ([1]; 40° C., 75% RH, Time 2 M): 0.01%
Related substance 1 Maximum unknown single impurity ([1]; 40° C., 75% RH, Time 2 M): RRT 1.132: 0.05%
Related substance 1 Total impurities ([1]; 40° C., 75% RH, Time 2 M): 0.44%
Related substance 2 ([1]; 40° C., 75% RH, Time 2 M): 0.06%
Appearance ([1]; 40° C., 75% RH, Time 3 M): Yellow solid
Content ([1]; 40° C., 75% RH, Time 3 M): 99.3%
Moisture ([1]; 40° C., 75% RH, Time 3 M): 0.06%
Related substance 1 Impurity 1 ([1]; 40° C., 75% RH, Time 3 M): 0.32%
Related substance 1 Maximum unknown single impurity ([1]; 40° C., 75% RH, Time 3 M): RRT 1.123: 0.05%
Related substance 1 Total impurities ([1]; 40° C., 75% RH, Time 3 M): 0.49%
Related substance 2 ([1]; 40° C., 75% RH, Time 3 M): 0.10%
Appearance ([1]; 40° C., 75% RH, Time 6 M): Yellow solid
Content ([1]; 40° C., 75% RH, Time 6 M): 99.7%
Moisture ([1]; 40° C., 75% RH, Time 6 M): <0.1%
Related substance 1 5-Nitro-8-hydroxyquinoline ([1]; 40° C., 75% RH, Time 6 M): <0.1%
Related substance 1 Impurity 1 ([1]; 40° C., 75% RH, Time 6 M): 0.3%
Related substance 1 Impurity 2 ([1]; 40° C., 75% RH, Time 6 M): <0.01%
Related substance 1 Maximum unknown single impurity ([1]; 40° C., 75% RH, Time 6 M): RRT 0.896: 0.04%
Related substance 1 Total impurities ([1]; 40° C., 75% RH, Time 6 M): 0.6%
Related substance 2 ([1]; 40° C., 75% RH, Time 6 M): 0.15%
crystal form before and after the DVS test (XRPD) [2]: unchanged
vapor sorption (DVS) ([2]; 25° C./80% RH): 0.17%
